Tests used:
Type in all cases: physicochemical
[1] = Formation of ^90Y-yttrium complex, radiochemical yield by TLC/HPLC; details: for radiochemical yield: 25° C.
Description: Purified DO3A-P^BnNH2 was dissolved in demineralised water at a concentration of 9×10^−5 mol/l. 0.1 ml of this solution were transferred into a small reaction vial (PE). 0.1 ml ^90Y-yttrium chloride (YCl3) in 0.1 M HCl and 0.1 ml ammonium acetate buffer, pH 5.7, were added. The reaction solutions were mixed well. pH values were measured continuously while preparing the solution. 24 identical solutions were prepared accordingly and stored at 25° C. and 37° C. respectively.
Samples were taken after 15 min, 30 min, 45 min, 60 min, 90 min and 120 min and analyzed by thin layer chromatography using silica gel (POLYGRAM SIL G/UV254) or, preferably, paper (Whatman No. 1) as solid phase. TLC was run using either solvent I: 0.1 N ammonium acetate solution or solvent II: 3% sodium chloride solution as developing solution. In parallel, samples (20 μl) were analyzed by gel filtration using HPLC. The HPLC-system comprised a gamma detector (Berthold LB 506) and a UV/VIS spectrometer (Waters 486) installed in two flow through cells, respectively.
Temperature- and time-dependent studies have shown a very short reaction time for the complex formation of a ^90Y-Yttrium-DO3A-complex.
Furthermore, the effect of pH and ligand concentration on radiochemical yield was evaluated. Table 5 summarizes the results relating to the variation of pH between pH 2.0 and pH 8.9 while maintaining a constant ratio of DO3A-P^BnNH2 and Y of 3:1 and a reaction time of 60 min at 25° C. Accordingly, best labeling results are achieved at pH values of 4.9-8.0. Table 6 summarizes the results relating to the variation of the ligand concentration DO3A-P^BnNH2: Y between 1:1 up to 7:1 while maintaining a constant pH range (pH 5.2) and reaction time of 60 min at 25° C.

[2] = as above; details: reaction time 0 min; 25° C.; [Y] = 1,2 · 10^−3 mol/l; ratio of ligand: Y = 1:1; pH = 5.5
[3] = Relaxation measurements of gadolinium(III) complex solutions; details: gadolinium(III) complex prepared in solution from GdCl3.6H2O; approx. pH 7; at 10 MHz
Description: Solution was stirred for 1 h at room temperature and pH was set to approx. pH 7 by careful addition of solid KOH. Thus prepared solution as well as other solutions of different concentration which were prepared by a similar approach (all containing known amount of water and gadolinium(III)) were used for relaxation measurements. The solutions gave relaxivity 7.86 mmol^−1 s^−1 (at 10 MHz).
Solution of gadolinium(III) complex of compound 1 for relaxation measurements were prepared similarly to Example 51. The solutions gave relaxivity 7.54 mmol-1 s^−1 (at 10 MHz). Exchange half-life of coordinated water molecule 70 ns was determined (from temperature dependence of ^17O NMR parameters).

SMILES: Nc1ccc(CP(=O)(O)CN2CCN(CC(=O)O)CCN(CC(=O)O)CCN(CC(=O)O)CC2)cc1 [Compound 11]
- pH values at which best labeling results are achieved ([1]; ^90Y, ratio of DO3A-P^BnNH2 and Y of 3:1, reaction time of 60 min at 25° C., pH varied 2.0 to 8.9): 4.9-8.0
- radiochemical yield ([1]; ratio of ligand:Y 1:1, [Y] = 1.2 · 10^−3 mol/l, pH = 5.2, reaction time 60 min): 94%
- radiochemical yield ([1]; reaction time 15 min, [Y] = 1,2 · 10^−3 mol/l, ratio of ligand: Y = 1:1, pH = 5.5): 97%
- radiochemical yield [2]: 88%
- relaxivity [3]: 7.86 mmol⁻¹ s⁻¹
